# According to patent publication US20250129096A1, “ANNULATED 2-AMINO-3-CYANO THIOPHENES AND DERIVATIVES FOR THE TREATMENT OF CANCER” (Boehringer Ingelheim Int'l GmbH Corp., priority 2021, published 2025):
# Read-outs that look alike come from different tables or passages of the source.
# How the values were obtained:
# [1] = Caco-2 assay; assay type: in vitro ADME; conditions: human; for Papp A→B at 90 min, 10 μM: Caco-2, apical to basolateral, pH 7.4, read-out: Caco PappAB; for efflux ratio at 90 min, 10 μM: Caco-2, pH 7.4, efflux ratio PappBA/PappAB, read-out: Caco ER
# Description: The assay provides information on the potential of a compound to pass the cell membrane, on the extent of oral absorption as well as on whether the compound is actively transported by uptake and/or efflux transporters. Permeability measurements across polarized, confluent Caco-2 cell monolayers grown on permeable filter supports (Corning, catalog #3391) are used. […] The receiver and donor compartments contain 0.25% bovine serum albumine (BSA) in assay buffer. Passive diffusion and/or active transport of compounds across the monolayer is measured in both apical to basolateral (a-b) and basolateral to apical (b-a) direction. a-b permeability (PappAB) represents drug absorption from the intestine into the blood and b-a permeability (PappBA) drug secretion from the blood back into the intestine via both passive permeability as well as active transport mechanisms mediated by efflux and uptake transporters that are expressed on the Caco-2 cells. After a pre-incubation of 25-30 min at 37° C., at predefined time points (0, 30, 60 and 90 min), samples were taken from the receiver and donor compartment, respectively. Concentrations of test compounds in samples were measured by HPLC/MS/MS, samples from the donor compartment were diluted 1:50 (v:v) with assay buffer, samples from receiver compartment were measured without dilution.
# Apparent permeabilities in a-b (PappAB) and b-a (PappBA) directions are calculated according to the formula:
# [formula] • Vrec [mL]: buffer volume in receiver compartment • Cdon [μmol/mL]: concentration of test compound in donor compartment at t=0 • ΔCrec: difference between concentrations of test compound in receiver compartment at start and end of incubation time • Δt: Incubation time • Vrec·ΔCrec/Δt [μmol/min]: Amount of compound transferred to receiver compartment per time • A [cm^2]: filter surface
# Caco-2 efflux ratios (ER) are calculated as the ratio of PappBA/PappAB.
# [2] = tested on: NCI-H358 cells (NSCLC, G12C); assay: NCI-H358 CTG proliferation assay (120 h), assay 2; assay type: cell-based; conditions: Homo sapiens, CellTiter-Glo, 384-well, 200 cells per well
# Protocol: NCI-1H358 cells (ATCC No. CRL-5807) are dispensed into white bottom opaque 96 well plates (Perkin Elmer cat no. 5680) at a density of 2000 cells per well in 100 μL RPM 1-1640 ATCC-Formulation (Gibco #A10491)+10% FCS (fetal calf serum) (assay 1) or into black 384-well plates, flat and clear bottom (Greiner, PNr. 781091) at a density of 200 cells per well in 60 μl RPMI-1640 ATCC-Formulation (Gibco #A10491)+10% FCS (fetal calf serum) (assay 2). […] Compounds (10 mM stock in DMSO) are added at logarithmic dose series using the HP Digital Dispenser D300 (Tecan) (assay 1) or the ECHO acoustic liquid handler system (Beckman Coulter) (assay 2), normalizing for added DMSO and including DMSO controls. For the TO time point measurement, untreated cells are analyzed at the time of compound addition. Plates are incubated for 120 h, and cell viability is measured using CellTiter-Glo luminescent cell viability reagent (Promega product code G7570). Viability (stated as percent of control) is defined as relative luminescence units RLU of each well divided by the RLU of cells in DMSO controls. IC50 values are determined from viability measurements by non-linear regression using a four-parameter model.
# [3] = target: T1, KRAS (G12D)::SOS1 (Homo sapiens, UniProt P01116, G12D); assay: KRAS::SOS1 AlphaScreen binding assay, KRAS G12D
# T1 construct: KRAS (G12D) 1-169, N-terminal 6His-tag, C-terminal avi-tag; 6His-tag (N); purchased Xtal BioStructures, Inc. (KRAS G12D); Viva Biotech Ltd (SOS1)
# T1 sequence (P01116 1-169 isoform P01116-2 G12D): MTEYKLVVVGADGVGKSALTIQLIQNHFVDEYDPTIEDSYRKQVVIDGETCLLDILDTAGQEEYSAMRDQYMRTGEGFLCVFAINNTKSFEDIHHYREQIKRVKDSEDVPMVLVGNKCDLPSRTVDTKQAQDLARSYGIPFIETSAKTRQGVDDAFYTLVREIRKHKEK
# Protocol: (§1) Low IC50 values in this assay setting are indicative of strong inhibition of protein-protein interaction between SOS1 and KRAS:
# (§2) These assays measure the inhibitory effect of compounds on KRAS mutant protein-protein interactions using the Alpha Screen technology by Perkin Elmer.
# (§3) For the chosen highest assay concentration of 100 μM, 150 nL of compound solution are transferred from a 10 mM DMSO compound stock solution. A series of eleven fivefold dilutions per compound are transferred to the assay plate, compound dilutions are tested in duplicates. DMSO are added as backfill to a total volume of 150 nL.
# (§4) The assays run on a fully automated robotic system in a darkened room below 100 Lux. To 150 nl of compound dilution 10 μl of a mix including KRAS mutant protein, SOS1 (final assay concentrations see above) and GDP nucleotide (Sigma G7127; final assay concentration 10 μM) in assay buffer (1×PBS, 0.1% BSA, 0.05% Tween 20) are added into columns 1-24. After 30 minutes incubation time 5 μl of Alpha Screen bead mix in assay buffer are added into columns 1-23.
# (§5) Plates are kept at room temperature in a darkened incubator. After an additional 60 minutes incubation time the signal is measured in a PerkinElmer Envision HTS Multilabel Reader using the AlphaScreen specs from PerkinElmer.
# (§6) IC50 values are calculated and analyzed with Boehringer Ingelheim's MEGALAB IC50 application using a 4 parametric logistic model.
# [4] = Solubility measurement (DMSO solution precipitation method); assay type: physicochemical; conditions: aqueous buffer, kinetic from dmso stock, ambient temperature
# Protocol: The DMSO solution is diluted with an aqueous medium (McIlvaine buffer with pH=4.5 or 6.8) to a final concentration of 250 μM. After 24 h of shaking at ambient temperature a potentially formed precipitate is removed by filtration. The concentration of the test compound in the filtrate is determined by LC-UV methods by calibrating the signal to the signal of a reference solution with complete dissolution of the test compound in acetonitrile/water (1:1) with known concentration.
# [5] = target: KRAS G12C Ba/F3 cells (Homo sapiens, UniProt P01116, G12C, cells depend on it); assay: Ba/F3 proliferation assay, KRAS G12C; assay type: cell-based; conditions: 72 h, AlamarBlue; read-out: KRAS G12C Ba/F3 IC50
# KRAS G12C Ba/F3 cells, sequence (P01116 whole entry G12C, canonical isoform): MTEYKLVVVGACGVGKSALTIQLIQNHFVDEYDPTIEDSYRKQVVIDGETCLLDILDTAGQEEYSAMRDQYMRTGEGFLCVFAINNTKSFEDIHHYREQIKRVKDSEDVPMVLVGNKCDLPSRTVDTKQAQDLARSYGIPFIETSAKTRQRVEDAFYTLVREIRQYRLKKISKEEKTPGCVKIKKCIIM
# Protocol: (§7) To generate KRASG12-dependent Ba/F3 models, Ba/F3 cells are transduced with retroviruses containing vectors that harbor KRASG12 isoforms. Platinum-E cells (Cell Biolabs) are used for retrovirus packaging. Retrovirus is added to Ba/F3 cells. To ensure infection, 4 μg/mL polybrene is added and cells are spinfected. […] Cells with an infection efficiency of 10% to 20% are further cultivated and puromycin selection with 1 μg/mL is initiated. As a control, parental Ba/F3 cells are used to show selection status. Selection is considered successful when parental Ba/F3 cells cultures died. To evaluate the transforming potential of KRASG12 mutations, the growth medium is no longer supplemented with IL-3. Ba/F3 cells harboring the empty vector are used as a control. Approximately ten days before conducting the experiments, puromycin is left out. […] All treatments are performed in technical duplicates. […] AlamarBlue™(ThermoFisher), a viability stain, is added and fluorescence measured in the PerkinElmer Envision HTS Multilabel Reader. The raw data are imported into and analyzed with the Boehringer Ingelheim proprietary software MegaLab (curve fitting based on the program PRISM, GraphPad Inc.).
# [6] = target: T2, KRAS (G12C)::SOS1 (Homo sapiens, UniProt P01116, C118S/C51S/C80L/G12C); assay: KRAS::SOS1 AlphaScreen binding assay, KRAS G12C
# T2 construct: KRAS (G12C) 1-169, N-terminal 6His-tag for purification, cleaved off; 6His-tag (N, cleaved yes)
# T2 sequence (P01116 1-169 isoform P01116-2 G12C/C51S/C80L/C118S): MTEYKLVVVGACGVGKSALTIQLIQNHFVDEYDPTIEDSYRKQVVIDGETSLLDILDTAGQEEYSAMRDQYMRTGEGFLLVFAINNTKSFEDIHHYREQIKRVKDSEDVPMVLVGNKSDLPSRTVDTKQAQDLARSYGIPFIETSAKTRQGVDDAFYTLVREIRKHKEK
# Protocol: as §1, §2, §3, §4, §5, §6
# [7] = target: T3, CYP3A4 (Homo sapiens, UniProt P08684); assay: Mechanism based inhibition of CYP3A4 assay (MBI 3A4); assay type: in vitro ADME; conditions: 25 uM, hydroxy-midazolam formation after 30 min preincubation relative to 0 min, human liver microsomes
# T3 construct: assayed in human liver microsomes (0.02 mg/mL) with midazolam (15 μM) as a substrate; from tissue; host or cells: human liver microsomes
# T3 sequence (P08684 whole entry): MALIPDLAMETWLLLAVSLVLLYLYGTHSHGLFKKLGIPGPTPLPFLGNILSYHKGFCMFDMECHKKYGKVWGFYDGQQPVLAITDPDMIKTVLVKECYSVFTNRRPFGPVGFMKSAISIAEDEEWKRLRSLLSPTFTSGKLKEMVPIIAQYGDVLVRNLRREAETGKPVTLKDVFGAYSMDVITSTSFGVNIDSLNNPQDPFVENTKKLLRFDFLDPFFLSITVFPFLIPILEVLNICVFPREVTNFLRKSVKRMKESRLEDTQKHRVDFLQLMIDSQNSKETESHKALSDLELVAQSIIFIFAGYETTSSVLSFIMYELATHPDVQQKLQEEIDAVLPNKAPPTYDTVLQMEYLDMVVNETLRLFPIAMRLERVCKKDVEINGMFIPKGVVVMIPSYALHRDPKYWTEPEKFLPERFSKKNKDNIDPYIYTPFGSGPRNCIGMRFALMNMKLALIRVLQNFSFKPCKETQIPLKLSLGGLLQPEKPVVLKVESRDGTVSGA
# Protocol: After preincubation, the incubate is diluted 1:10 and the substrate midazolam is added for the main incubation (15 min). The main incubation is quenched with acetonitrile and the formation of hydroxy-midazolam is quantified via LC/MS-MS. The formation of hydroxy-midazolam from the 30 min preincubation relative to the formation from the 0 min preincubation is used as a readout. Values of less than 100% mean that the substrate midazolam is metabolized to a lower extent upon 30 min preincubation compared to 0 min preincubation. In general low effects upon 30 min preincubation are desired (corresponding to values close to 100%/not different to the values determined with water control).
# [8] = target: KRAS G12D Ba/F3 cells (Homo sapiens, UniProt P01116, G12D, cells depend on it); assay: Ba/F3 proliferation assay, KRAS G12D; assay type: cell-based; conditions: 72 h, AlamarBlue; read-out: KRAS G12D Ba/F3 IC50
# KRAS G12D Ba/F3 cells, sequence (P01116 whole entry G12D): as the sequence (P01116 whole entry G12C, canonical isoform) above, with C12D counted along it
# Protocol: as §7
# [9] = McIlvaine buffer pH 4.5, 24 h, read-out: solubility pH 4.5
# [10] = McIlvaine buffer pH 6.8, 24 h, read-out: solubility pH 6.8
"Papp A→B at 90 min, 10 μM [1] [×10⁻⁶ cm/s]","efflux ratio at 90 min, 10 μM [1]",IC50 [2] [nM],IC50 [3] [nM],"solubility at 24 h [4, 9] [µg/mL]","solubility at 24 h [4, 10] [µg/mL]",GI50 [5] [nM],IC50 [6] [nM],MBI 3A4 [7] [%],GI50 [8] [nM],Structure (SMILES)
21,1.3,402,2,> 110,> 110,19,4,52,13,C[C@H](Oc1nccc(-c2noc3c2CCC[C@@]32CCCc3sc(N)c(C#N)c32)n1)[C@@H]1CCCN1C [IIb-6]
26,1.3,1440,2,> 110,> 110,51,3,54,24,C[C@H](Oc1nccc(-c2onc3c2CCC[C@@]32CCCc3sc(N)c(C#N)c32)n1)[C@@H]1CCCN1C [Ib-1]
